From patent US8486464B2, “Herbal composition for angina pectoris, method to prepare same and uses thereof” (Tasly Pharmaceutical Group Co. Ltd., priority 2000, dated 2013)
Like-named read-outs stand apart in the source and are kept apart here.

Tests used:
[1] = cited from earlier work
polychromatic RBCs = assay: Micronucleus rates in mice; format: in vivo; conditions: 80 mg/kg; 24 hrs
[2] = test system: thrombosis, platelet aggregation, coagulation; conditions: single injection of 20 mg/kg; cited from earlier work
CK, LDH = assay: Dog blood serum CK and LDH; format: in vivo; conditions: dogs, Dan Shen Pill 2 g/kg
Procedure: (§1) 1.1 Experimental Groups. (1) Blank control group, normal saline 3 ml/kg; (2) DSP group, 2 g natural drug/kg; (3) positive control group, Ditiazem, 5 mg/kg. All the above samples are diluted with normal saline to the same volume of 3 ml/kg and were given to the patient through the duodenum.
(§2) 1.2 Experimental Method. The dogs are anesthetized with pentobarbital sodium. Chests were opened and coronary arterioles and the central part of the dorsal lower branch separated and tied to create an acute myocardial ischemia model. ECGs were recorded and the level of myocardial ischemia (increased section ST, ST) and area of myocardial ischemia (the total increased decimal places in section ST) were calculated. The oxygen content in the coronary artery was recorded. Blood serum creatine kinase (CK), lactate dehydrogenase (LDH), ET, TXB2 and 6-Keto-PGF1 were measured. The oxygen content of the aorta and coronary vein, and blood flow volume in the coronary arteries were measured to calculate myocardial oxygen consumption. Blood oxygen content in the coronary vein was measured to calculate myocardial oxygen content (myocardial oxygen content=(blood oxygen content in arteries-blood oxygen content in coronary veins)×blood flow volume in coronary artery/100).

ET, TXB2, 6-Keto-PGF1α = assay: Dog plasma ET, TXB2, 6-Keto-PGF1α; format: in vivo; conditions: dogs, Dan Shen Pill 2 g/kg, Diltiazen 5 mg/kg
Procedure: as §1, §2

hemicrania = assay: Hemicrania, DSP vs Flunarizine; format: in vivo, human; conditions: 8 weeks
Procedure: (2) Effects on hemicrania 58 patients with hemicrania were selected from clinics. They all qualify under International Headache Standards classifications. 10 tablets of DSP (25 mg/tablet) were given to the Treatment group, 3 times/day. 5 mg of Flunarizine was given to the control group, once a day, orally. The medication lasted 8 weeks. Treatment results and side effects were recorded every 2 weeks. No other pain-killing medications were taken within the 6 months.
Treatment standards. Controlled: Headaches disappeared with medication, and there was no reoccurrence after treatment ended; Obvious efficacy: The seriousness of headaches is reduced, duration is shortened, and onset frequency is reduced to 75% or more; Efficacy: The level of headache is reduced, and onset frequency is reduced 50%˜70%; Failure: No improvement in headaches.

[3] = cited from earlier work; remark: listed apart in the source
dizziness = assay: Dizziness, DSP vs lidocaine; format: in vivo, human
Description: 61 patients were divided into two groups at random. 29 patients were in the Treatment group, including 22 patients with insufficient blood supply to the cerebral artery, 7 patients with Meniere Disease, 5 patients with high blood pressure, and 2 patients with coronary heart disease. 32 patients were in the control group, including 22 patients with insufficient blood supply to the cerebral artery, 10 patients with Meniere Disease, 7 patients with high blood pressure, and 4 patients with coronary heart disease. 10 tablets of DSP were given to the Treatment group, 3-5 times/day for 3-7 days. 50 mg of lidocaine was injected into the Control group, once a day for 3-7 days.
Treatment method: (1) Obvious Efficacy: Dizziness and other companion symptoms disappeared, and there was no re-occurrence for 12 hrs after observation. (2) Efficacy: The level of dizziness and other symptoms disappeared. (3) Failure: No improvement.

[4] = test system: chronic pulmonary heart disease; assay: Chronic pulmonary heart disease, DSP vs persantin: efficacy; format: in vivo, human; conditions: 1 month
Description: (§3) 90 cases of chronic pulmonary heart disease were selected based on the diagnosis standard set up during the National Pulmonary Heart Disease Congress in 1977. The patients were divided randomly into an Observation group and a Control group. The 60 cases in the Observation group took DSP, while the 30 cases in the Control group took persantin. Based on the objectives of: reduced inflammation, coughing cessation, dissolving of sputum, cardial and diuretic action, and cardiac function improvement, the Observation group was given 10 grains of DSP, 3 times a day. The Control group was given 50 mg of Poon Seng Ding each time, 3 times a day. Treatment lasted 1 month.
(1) Obvious Efficacy. The symptoms such as coughing, asthma, pulmonary rales, syanosis were relieved or disappeared. The ascites and lower limbs sdema were disappeared as well. Heartbeat was under 100 times/min and cardiac function was improved above grade I-II. The urine volume per day increased by 600 ml and above, while the body weight decreased by 4%. The end-brush circulations were improved.
(3) Inefficacy. Above all markers were not improved.

hemorheology = assay: Chronic pulmonary heart disease: hemorheologic markers; format: in vivo, human
Description: as §3

[5] = Diltiazen 5 mg/kg, 30 min after dosage
[6] = Diltiazen 5 mg/kg, 60 min after dosage
[7] = Diltiazen 5 mg/kg, 90 min after dosage
[8] = Diltiazen 5 mg/kg, 120 min after dosage
[9] = Diltiazen 5 mg/kg, 180 min after dosage
[10] = Diltiazen 5 mg/kg, after hypoxia before dosage
[11] = Ditiazen 5 mg/kg, 30 min after dosage
[12] = Ditiazen 5 mg/kg, 60 min after dosage
[13] = Ditiazen 5 mg/kg, 90 min after dosage
[14] = Ditiazen 5 mg/kg, 120 min after dosage
[15] = Ditiazen 5 mg/kg, 180 min after dosage
[16] = Ditiazen 5 mg/kg, after hypoxia before dosage
[17] = Insufficient blood supply to the brain

3H-Borneol [Example 3H-Borneol]
diminishing half-lifetime ([1]; oral administration): 5.3 h
half-life time ([1]; single intraveneous injection): 2.8 min

O=P1(N(CCCl)CCCl)NCCCO1 (stereo not shown) [CP]
Micro-rates (%) (polychromatic RBCs): 23.0 ± 4.0 %
Micronucleus Cells (polychromatic RBCs): 138

O=C(O)[C@H](O)Cc1ccc(O)c(O)c1 [Danshensu, D(+)-3,4-dihydroxyphenyl lactic acid]
duration of effect [2]: 1 h
time of peak effect [2]: 30 min

COc1ccc([C@@H]2Sc3ccccc3N(CCN(C)C)C(=O)[C@@H]2OC(C)=O)cc1 [Diltiazen]
LDH, changing in percentage (before dosage = 100%) (CK, LDH; [5]): 101.14 ± 17.90 %
blood serum LDH (CK, LDH; [5]): 143.40 ± 28.64 U/L
LDH, changing in percentage (before dosage = 100%) (CK, LDH; [6]): 92.58 ± 15.17 %
blood serum LDH (CK, LDH; [6]): 134.40 ± 46.48 U/L
LDH, changing in percentage (before dosage = 100%) (CK, LDH; [7]): 93.31 ± 19.02 %
blood serum LDH (CK, LDH; [7]): 153.00 ± 70.80 U/L
LDH, changing in percentage (before dosage = 100%) (CK, LDH; [8]): 121.32 ± 22.12%
blood serum LDH (CK, LDH; [8]): 194.60 ± 76.72 U/L
LDH, changing in percentage (before dosage = 100%) (CK, LDH; [9]): 117.24 ± 26.69 %
blood serum LDH (CK, LDH; [9]): 164.80 ± 49.36 U/L
LDH, changing in percentage (CK, LDH; [10]): 101.14 ± 17.90 %
blood serum LDH (CK, LDH; [10]): 143.40 ± 28.64 U/L
blood serum LDH (CK, LDH; Diltiazen 5 mg/kg, before hypoxia (normal)): 106.40 ± 19.12 U/L
6-Keto-PGF1α/TXB2 (ET, TXB2, 6-Keto-PGF1α; 30 min after dosage): 1.507 ± 0.505
6-Keto-PGF1α/TXB2, changing in percentage (before dosage = 100%) (ET, TXB2, 6-Keto-PGF1α; 30 min after dosage): 148.42 ± 17.35 %
6-Keto-PGF1α/TXB2 (ET, TXB2, 6-Keto-PGF1α; 60 min after dosage): 1.501 ± 0.358
6-Keto-PGF1α/TXB2, changing in percentage (before dosage = 100%) (ET, TXB2, 6-Keto-PGF1α; 60 min after dosage): 155.44 ± 28.97 %
6-Keto-PGF1α/TXB2 (ET, TXB2, 6-Keto-PGF1α; 90 min after dosage): 1.980 ± 0.924
6-Keto-PGF1α/TXB2, changing in percentage (before dosage = 100%) (ET, TXB2, 6-Keto-PGF1α; 90 min after dosage): 203.82 ± 83.25 %
6-Keto-PGF1α/TXB2 (ET, TXB2, 6-Keto-PGF1α; 120 min after dosage): 1.980 ± 0.924
6-Keto-PGF1α/TXB2, changing in percentage (before dosage = 100%) (ET, TXB2, 6-Keto-PGF1α; 120 min after dosage): 203.82 ± 83.25 %
6-Keto-PGF1α/TXB2 (ET, TXB2, 6-Keto-PGF1α; 180 min after dosage): 1.801 ± 0.596
6-Keto-PGF1α/TXB2, changing in percentage (before dosage = 100%) (ET, TXB2, 6-Keto-PGF1α; 180 min after dosage): 198.48 ± 87.02 %
6-Keto-PGF1α/TXB2 (ET, TXB2, 6-Keto-PGF1α; after hypoxia before dosage): 143.40 ± 28.64
6-Keto-PGF1α/TXB2, changing in percentage (ET, TXB2, 6-Keto-PGF1α; after hypoxia before dosage): 101.14 ± 17.90 %
6-Keto-PGF1α/TXB2 (ET, TXB2, 6-Keto-PGF1α; before hypoxia (normal value)): 106.40 ± 19.12

COc1ccc([C@@H]2Sc3ccccc3N(CCN(C)C)C(=O)[C@@H]2OC(C)=O)cc1 [Ditiazen]
CK, changing in percentage (before dosage = 100%) (CK, LDH; [11]): 97.20 ± 12.50 %
blood serum CK (CK, LDH; [11]): 660.40 ± 184.88 U/L
CK, changing in percentage (before dosage = 100%) (CK, LDH; [12]): 108.84 ± 20.71 %
blood serum CK (CK, LDH; [12]): 737.80 ± 159.04 U/L
CK, changing in percentage (before dosage = 100%) (CK, LDH; [13]): 115.31 ± 19.97 %
blood serum CK (CK, LDH; [13]): 820.80 ± 289.76 U/L
CK, changing in percentage (before dosage = 100%) (CK, LDH; [14]): 314.91 ± 23.35 %
blood serum CK (CK, LDH; [14]): 972.40 ± 347.28 U/L
CK, changing in percentage (before dosage = 100%) (CK, LDH; [15]): 179.51 ± 10.60 %
blood serum CK (CK, LDH; [15]): 1238.60 ± 309.12 U/L
CK, changing in percentage (CK, LDH; [16]): 219.80 ± 38.93 %
blood serum CK (CK, LDH; [16]): 699.60 ± 211.52 U/L
blood serum CK (CK, LDH; Ditiazen 5 mg/kg, before hypoxia (normal)): 316.20 ± 63.04 U/L

Fc1ccc(C(c2ccc(F)cc2)N2CCN(C/C=C/c3ccccc3)CC2)cc1 [Flunarizine]
Controlled, number of cases (hemicrania): 5
Efficacy, number of cases (hemicrania): 7
Failure, number of cases (hemicrania): 9
Obvious efficacy, number of cases (hemicrania): 7
total efficacy (hemicrania): 67.86%

Cc1nc(C)c(C)nc1C.O=P(O)(O)O [TMP, tetramethylpyrazine phosphate]
Cmax ([3]; TMP 5 mg/kg ig with previous borneol 5 mg/kg): 931 ng/mL
Cmax ([3]; TMP 5 mg/kg ig without borneol): 562 ng/mL

CCN(CC)CC(=O)Nc1c(C)cccc1C [lidocaine]
total efficacy (dizziness; 3-7 days, 29 DSP, 32 lidocaine patients): 87.5%
Efficacy, cases (dizziness; [17]): 8
Failure, cases (dizziness; [17]): 2
Obvious Efficacy, cases (dizziness; [17]): 12
Total efficacy, % (dizziness; [17]): 91%
Total efficacy, cases (dizziness; [17]): 20
Efficacy, cases (dizziness; Meniere disease): 2
Failure, cases (dizziness; Meniere disease): 2
Obvious Efficacy, cases (dizziness; Meniere disease): 6
Total efficacy, % (dizziness; Meniere disease): 80%
Total efficacy, cases (dizziness; Meniere disease): 8
Efficacy, cases (dizziness; Total (all dizziness patients)): 10
Failure, cases (dizziness; Total (all dizziness patients)): 4
Obvious Efficacy, cases (dizziness; Total (all dizziness patients)): 18
Total efficacy, % (dizziness; Total (all dizziness patients)): 87.5%
Total efficacy, cases (dizziness; Total (all dizziness patients)): 28

OCCN(CCO)c1nc(N2CCCCC2)c2nc(N(CCO)CCO)nc(N3CCCCC3)c2n1 [persantin]
Efficacy, number of cases [4]: 9
Efficacy, rate [4]: 0.3
Obvious efficacy, number of cases [4]: 14
Obvious efficacy, rate [4]: 0.47
Total efficacy rate [4]: 0.76
Total efficacy, number of cases [4]: 23
inefficacy, number of cases [4]: 7
inefficacy, rate [4]: 0.23
Total efficacy rate ([4]; 60 DSP, 30 persantin): 76%
Aggregation rate of platelet (hemorheology; After treatment, 1 month): 32.28 ± 20.30%
Blood viscosity (hemorheology; After treatment, 1 month): 3.66 ± 0.58
Fibrinogen (hemorheology; After treatment, 1 month): 3.60 ± 0.23 g/L
Hematocrit (hemorheology; After treatment, 1 month): 0.37 ± 0.05 VOL/%
Aggregation rate of platelet (hemorheology; before treatment): 4.16 ± 2.32%
Blood viscosity (hemorheology; before treatment): 4.35 ± 0.81
Fibrinogen (hemorheology; before treatment): 4.22 ± 0.34 g/L
Hematocrit (hemorheology; before treatment): 0.48 ± 0.05 VOL/%
